In patent US20050245563A1 (Millennium Pharmaceuticals, Inc., priority 2003, published 2005):
pIC50: −log10 of the molar value.

Each compound was assayed against T1, human Chk1 (GST-Chk1) (Homo sapiens, UniProt O14757) (assay: Chk1 FlashPlate kinase assay). Conditions: 8.7 nM GST-Chk1, 1 uM ATP, 33P incorporation into peptide substrate.
T1 construct: made in house; host or cells: insect cells (baculovirus, Bac-to-Bac)
T1 sequence (O14757 1-476): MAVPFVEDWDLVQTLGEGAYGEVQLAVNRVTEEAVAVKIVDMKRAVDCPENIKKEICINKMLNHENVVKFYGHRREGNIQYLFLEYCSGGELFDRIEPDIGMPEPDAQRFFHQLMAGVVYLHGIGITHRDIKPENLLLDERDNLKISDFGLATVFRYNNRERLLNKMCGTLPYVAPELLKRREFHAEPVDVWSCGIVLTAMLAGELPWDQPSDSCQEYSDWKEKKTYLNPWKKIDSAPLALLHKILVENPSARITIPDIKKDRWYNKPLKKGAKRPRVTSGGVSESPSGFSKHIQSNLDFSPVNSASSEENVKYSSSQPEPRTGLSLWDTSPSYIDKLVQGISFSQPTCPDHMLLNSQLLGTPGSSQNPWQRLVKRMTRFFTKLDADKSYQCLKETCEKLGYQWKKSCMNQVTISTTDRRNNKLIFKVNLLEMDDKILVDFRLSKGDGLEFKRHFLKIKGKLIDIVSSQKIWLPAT
Assay type: biochemical
Method: Recombinant human Chk1 was expressed as a fusion protein with glutathione S-transferase at the amino-terminus (GST-Chk1) using standard baculovirus vectors and (Bac-to-Bac®) insect cell expression system purchased from GIBCO™ Invitrogen. Recombinant protein expressed in insect cells was purified using glutathione sepharose (Amersham Biotech) using standard procedures described by the manufacturer.
Chk1 FlashPlate® Kinase Assay:
Assays (25 μL) contained 8.7 nM GST-Chk1, 10 mM MES, 0.1 mM ethylene glycol-bis(β-aminoethylether)-N,N,N′,N′-tetracetic acid (EGTA, pH 8.0), 2 mM DTT, 0.05% Tween 20, 3 uM peptide substrate (Biotin-ILSRRPSYRKILND-free acid) (SEQ ID NO: 1), 1 uM ATP, 0.4 uCi ^33P-γ-ATP (NEN), 4% DMSO. Reactions were incubated for 30 minutes at room temperature, terminated with 50 μL of 50 mM EDTA and 90 μL were transferred to streptavidin-coated FlashPlates® (NEN) and incubated for 1 hour at room temperature. Plates were washed with phosphate buffered salaine containing 0.01% Tween-20 and 10 mM sodium pyrophosphate. Plates were dried, sealed with Topseal™ (NEN) and amount of ^33P incorporated into the peptide substate measure using a Packard Topcount® NXT™ scintillation counter with standard settings.

Row | Compound | pIC50
1 | Cc1ccc2c(c1)c1n[nH]c(C)c1c(=O)n2CCCNC(=O)OC(C)(C)C [Example 44, [3-(3,8-Dimethyl-4-oxo-2,4-dihydro-pyrazolo[4,3-c]quinolin-5-yl)-propyl]-carbamic acid tert-butyl ester] | > 6.00
2 | Cc1ccc2c(c1)c1n[nH]c(C)c1c(=O)n2CCCN [Example 45, 5-(3-Amino-propyl)-3,8-dimethyl-2,5-dihydro-pyrazolo[4,3-c]quinolin-4-one] | > 6.00
3 | Cc1n[nH]c2c1c(=O)n(C[C@@H](C)CNC(=O)OC(C)(C)C)c1ccc(Br)cc21 [Example 46, [3-(8-Bromo-3-methyl-4-oxo-1,4-dihydro-pyrazolo[4,3-c]quinolin-5-yl)-2-S-methyl-propyl]-carbamic acid tert-butyl ester] | > 6.00
4 | Cc1n[nH]c2c1c(=O)n(C[C@@H](C)CN)c1ccc(Br)cc21 [Example 47, 5-(3-Amino-2-S-methyl-propyl)-8-bromo-3-methyl-1,5-dihydro-pyrazolo[4,3-c]quinolin-4-one] | > 6.00
5 | Cc1n[nH]c2c1c(=O)n(CC1CCCNC1)c1ccc(Br)cc21 (stereo not shown) [Example 48, 8-Bromo-3-methyl-5-piperidin-3-ylmethyl-1,5-dihydro-pyrazolo [4,3-c]quinolin-4-one] | > 6.00
6 | COCCc1[nH]nc2c1c(=O)n(CCCN)c1ccc(Cl)cc21 [Example 50, 5-(3-Amino-propyl)-8-chloro-3-(2-methoxy-ethyl)-2,5-dihydro-pyrazolo[4,3-c]quinolin-4-one] | > 6.00
7 | Cc1n[nH]c2c1c(=O)n(CCCNCCc1ccccc1)c1ccccc21 [Example 51, 3-Methyl-5-(3-phenethylamino-propyl)-1,5-dihydro-pyrazolo[4,3-c]quinolin4-one] | > 6.00
8 | Cc1n[nH]c2c1c(=O)n(CCNC(=O)OC(C)(C)C)c1ccc(Br)cc21 [Example 52, [2-(8-Bromo-3-methyl-4-oxo-1,4-dihydro-pyrazolo[4,3-c]quinolin-5-yl)-ethyl]-carbamic acid tert-butyl ester] | > 6.00
9 | Cc1n[nH]c2c1c(=O)n(CCN)c1ccc(Br)cc21 [Example 53, 5-(2-Amino-ethyl)-8-bromo-3-methyl-1,5-dihydro-pyrazolo[4,3-c]quinolin4-one] | > 6.00
10 | Cc1[nH]nc2c1c(=O)n(CCCN)c1ccc([N+](=O)[O-])cc21 [Example 55, 5-(3-Amino-propyl)-3-methyl-8-nitro-2,5-dihydro-pyrazolo[4,3-c]quinolin-4-one] | > 6.00
11 | Cc1n[nH]c2c1c(=O)n(CCCNC(=O)OC(C)(C)C)c1ccc(Br)cc21 [Example 56, [3-(8-Bromo-3-methyl-4-oxo-1,4-dihydro-pyrazolo[4,3-c]quinolin-5-yl)-propyl]-carbamic acid tert-butyl ester] | > 6.00
12 | Cc1[nH]nc2c1c(=O)n(CCCN)c1ccc(Br)cc21 [Example 57, 5-(3-Amino-propyl)-8-bromo-3-methyl-1,5-dihydro-pyrazolo[4,3-c]quinolin-4-one] | > 6.00
13 | COc1ccc2c(c1)c1n[nH]c(C)c1c(=O)n2CCCN [Example 58] | > 6.00
14 | Cc1[nH]nc2c1c(=O)n(CCCN)c1ccc(O)cc21 [Example 59, 5-(3-Amino-propyl)-8-hydroxy-3-methyl-2,5-dihydro-pyrazolo[4,3-c]quinolin-4-one] | > 6.00
15 | Cc1[nH]nc2c1c(=O)n(CCCNC(=O)c1ccc(Cl)cc1)c1ccccc21 [Example 60, 4-Chloro-N-[3-(3-methyl-4-oxo-2,4-dihydro-pyrazolo[4,3-c]quinolin-5-yl)-propyl]-benzamide] | > 6.00
16 | Cc1[nH]nc2c1c(=O)n(CCCNC(=O)c1ccc([N+](=O)[O-])cc1)c1ccccc21 [Example 61, N-[3-(3-Methyl-4-oxo-2,4-dihydro-pyrazolo[4,3-c]quinolin-5-yl)-propyl]-4-nitro-benzamide] | > 6.00
17 | Cc1[nH]nc2c1c(=O)n(CCCNC(=O)CCc1ccccc1)c1ccccc21 [Example 62, N-[3-(3-Methyl-4-oxo-2,4-dihydro-pyrazolo[4,3-c]quinolin-5-yl)-propyl]-3-phenyl-propionamide] | > 6.00

Row | Compound | pIC50
18 | Cc1[nH]nc2c1c(=O)n(CCCNC(=O)c1ccc(F)cc1F)c1ccccc21 [Example 63, 2,4-Difluoro-N-[3-(3-methyl-4-oxo-2,4-dihydro-pyrazolo[4,3-c]quinolin-5-yl)-propyl]-benzamide] | > 6.00
19 | Cc1[nH]nc2c1c(=O)n(CCCNC(=O)c1ccc(F)cc1)c1ccccc21 [Example 64, 4-Fluoro-N-[3-(3-methyl-4-oxo-2,4-dihydro-pyrazolo[4,3-c]quinolin-5-yl)-propyl]-benzamide] | > 6.00
20 | Cc1[nH]nc2c1c(=O)n(CCCNC(=O)C1CCCCC1)c1ccccc21 [Example 65, Cyclohexanecarboxylic acid [3-(3-methyl-4-oxo-2,4-dihydro-pyrazolo[4,3-c]quinolin-5-yl)-propyl]-amide] | > 6.00
21 | Cc1n[nH]c2c1c(=O)n(CCCNC(=O)Nc1ccccc1)c1ccccc21 [Example 66, 1-[3-(3-Methyl-4-oxo-1,4-dihydro-pyrazolo[4,3-c]quinolin-5-yl)-propyl]-3-phenyl-urea] | > 6.00
22 | Cc1n[nH]c2c1c(=O)n(CCCCNC(=O)Nc1ccccc1)c1ccc(Br)cc21 [Example 67, 1-[4-(8-Bromo-3-methyl-4-oxo-1,4-dihydro-pyrazolo[4,3-c]quinolin-5-yl)-butyl]-3-phenyl-urea] | > 6.00
23 | Cc1[nH]nc2c1c(=O)n(CCCNC(=O)c1ccc(C#N)cc1)c1ccccc21 [Example 68, 4-Cyano-N-[3-(3-methyl4-oxo-2,4-dihydro-pyrazolo[4,3-c]quinolin-5-yl)-propyl]-benzamide] | > 6.00
24 | COc1ccc(C(=O)NCCCn2c(=O)c3c(C)[nH]nc3c3ccccc32)cc1 [Example 69, 4-Methoxy-N-[3-(3-methyl-4-oxo-2,4,5a,9a-tetrahydro-pyrazolo[4,3-c]quinolin-5-yl)-propyl]-benzamide] | > 6.00
25 | Cc1[nH]nc2c1c(=O)n(CCCN)c1cc(Cl)ccc21 [Example 70, 5-(3-Amino-propyl)-7-chloro-3-methyl-2,5-dihydro-pyrazolo[4,3-c]quinolin-4-one] | > 6.00
26 | Cc1[nH]nc2c1c(=O)n(CCCNC(=O)c1cccc(Cl)c1)c1ccccc21 [Example 71, 3-Chloro-N-[3-(3-methyl-4-oxo-2,4-dihydro-pyrazolo[4,3-c]quinolin-5-yl)-propyl]-benzamide] | > 6.00
27 | Cc1[nH]nc2c1c(=O)n(CCCNC(=O)c1ccc(C(F)(F)F)cc1)c1ccccc21 [Example 72, N-[3-(3-Methyl-4-oxo-2,4-dihydro-pyrazolo[4,3-c]quinolin-5-yl)-propyl]-4-trifluoromethyl-benzamide] | > 6.00
28 | Cc1n[nH]c2c1c(=O)n(CCCNC(=O)c1ccccc1)c1ccccc21 [Example 73, N-[3-(3-Methyl-4-oxo-1,4-dihydro-pyrazolo[4,3-c]quinolin-5-yl)-propyl]-benzamide] | > 6.00
29 | Cc1[nH]nc2c1c(=O)n(CCCNC(=O)N1CCOCC1)c1ccccc21 [Example 74, Morpholine-4-carboxylic acid [3-(3-methyl-4-oxo-2,4-dihydro-pyrazolo[4,3-c]quinolin-5-yl)-propyl]-amide] | > 6.00
30 | Cc1[nH]nc2c1c(=O)n(CCCNC(=O)c1ccc(Cl)cc1)c1cc(Cl)ccc21 [Example 75, 4-Chloro-N-[3-(7-chloro-3-methyl-4-oxo-2,4-dihydro-pyrazolo[4,3-c]quinolin-5-yl)-propyl]-benzamide] | > 6.00
31 | Cc1[nH]nc2c1c(=O)n(CCCNC(=O)c1ccc(Cl)c(Cl)c1)c1ccccc21 [Example 76, 3,4-Dichloro-N-[3-(3-methyl-4-oxo-2,4-dihydro-pyrazolo[4,3-c]quinolin-5-yl)-propyl]-benzamide] | > 6.00
32 | Cc1[nH]nc2c1c(=O)n(CCCNC(=O)c1ccc(N(C)C)cc1)c1ccccc21 [Example 78, 4-Dimethylamino-N-[3-(3-methyl-4-oxo-2,4-dihydro-pyrazolo[4,3-c]quinolin-5-yl)-propyl]-benzamide] | > 6.00
33 | COc1ccc2c(c1)c1n[nH]c(C)c1c(=O)n2CCCNC(=O)OC(C)(C)C [Example 79, [3-(8-Methoxy-3-methyl-4-oxo-2,4-dihydro-pyrazolo[4,3-c]quinolin-5-yl)-propyl]-carbamic acid tert-butyl ester] | > 6.00
34 | Cc1[nH]nc2c1c(=O)n(CCCNC(=O)OCc1ccccc1Cl)c1ccccc21 [Example 80, [3-(3-Methyl-4-oxo-2,4-dihydro-pyrazolo[4,3-c]quinolin-5-yl)-propyl]-carbamic acid 2-chloro-benzyl ester] | > 6.00
